One molecule from patent publication US20230331604A1, “METHOD FOR THE ELECTROCHEMICAL CONTROL OF THE PHOTOSYNTHETIC METABOLISM OF PURPLE NON-SULFUR BACTERIA AND REDOX MEDIATORS THEREOF” (Zuccato HC S.r.l., priority 2020, published 2023) can be followed below.

Data set [1] is described as follows: equilibrium potential of the redox mediator. The format is physicochemical. As to conditions: vs SCE reference electrode. An excerpt:
This is enabled by the use of suitable fat-soluble redox mediators ([2], [3]) capable of permeabilizing the bacterial membrane and entering the cytoplasm, in order to alter the oxidation state of the disulfide bond present in type A thioredoxins, as well as by appropriate light irradiation.

Data set [2] relates to Rhodobacter sphaeroides (ATCC 55304). The data set can be described thus: bacteriochlorophyll synthesized by Rhodobacter sphaeroides under electrochemical control vs aerobic growth (absorption spectra). The format is cell-based. Particulars: 50 nM safranin, acetone/methanol extract, absorbance normalized to 660 nm.
Method: A homemade potentiostat was used as an external source of free energy, capable of providing a current of up to 100 mA and keeping the potential constant within the range of −2 V÷+2 V).
The materials of the electrodes used are: • Working electrode: stainless steel grid with 1 mm mesh spacing. • Counter electrode: graphite bars (0.8 cm in diameter, 30 cm long) • Reference electrode: (SCE)
Safranin T, molecular mass equal to 350.85. (Fluka) at a concentration equal to 50 nM, was used as redox mediator in the cell.
The solution inside the fermenter/reactor was kept under mild stirring to facilitate the recirculation of the redox mediator molecules.

Molecules are shown by their SMILES.

Consider `Cc1cc2nc3cc(C)c(N)cc3[n+](-c3ccccc3)c2cc1N.[Cl-]` [Safranin T, safranin T], for which the equilibrium potential entry in data set [1] is reported as “about −540 mV”. For the same molecule, the “intensity of bacteriochlorophyll absorption bands compared to the corresponding aerobic population” value in data set [2] is “almost tripled”.
